One may read the inhibition as the drop in the measured response relative to a control, in per cent. In general, IC50 refers to the concentration that inhibits the measured activity by half.

Data set [1] concerns HepG2. Briefly: Antiproliferative activity against human HepG2 cells at 50 uM after 24 hrs by crystal violet-staining assay. It is filed as functional.
In data set [2] the test system is HepG2. Briefly: Antiproliferative activity against human HepG2 cells at 10 uM after 24 hrs by crystal violet-staining assay. In kind it is functional.
Data set [3] is filed under the species Homo sapiens. Briefly: Inhibition of human ChoK activity assessed as inhibition of incorporation of [14C] from methyl[14C]choline into phosphocholine at 50 uM after 20 mins by scintillation counting.
Data set [4] is filed under the species Homo sapiens. The data set can be described thus: Inhibition of human ChoK activity assessed as inhibition of incorporation of [14C] from methyl[14C]choline into phosphocholine at 10 uM after 20 mins by scintillation counting.
Data set [5] deals with HepG2. Briefly: Antiproliferative activity against human HepG2 cells at 5 uM after 24 hrs by crystal violet-staining assay. In kind it is functional.
Data set [6] relates to HepG2. The data set can be described thus: Antiproliferative activity against human HepG2 cells at 1 uM after 24 hrs by crystal violet-staining assay. In kind it is functional.
The test system of data set [7] is HepG2. Briefly: Cytotoxicity against human HepG2 cells at 50 uM after 24 hrs by crystal violet-staining assay. It is filed as cell-based. Particulars: hepg2, 24 h.
The test system of data set [8] is HepG2. The data set can be described thus: Cytotoxicity against human HepG2 cells at 10 uM after 24 hrs by crystal violet-staining assay. It is filed as cell-based. Particulars: hepg2, 24 h.
Data set [9] in a line: Inhibition of human ChoK activity assessed as inhibition of incorporation of [14C] from methyl[14C]choline into phosphocholine after 20 mins by scintillation counting.

Activity calls are given as the source filed them. The calls are words filed in the database; no cut-off is given here.

As to `CN(C)c1cc[n+](Cc2ccc(-c3ccc(Cn4cnc(N)c5ncnc4-5)cc3)cc2)cc1.[Br-]`, the Activity in the data set with HepG2 [1] is 7%; with HepG2 [2], 10%. For the same compound, the inhibition in the data set filed under Homo sapiens [3] came to 71.4%; in the data set filed under Homo sapiens [4], 62.3%.
As for `CN(C)c1cc[n+](Cc2ccc(CCCCc3ccc(COc4cccc(N)c4)cc3)cc2)cc1.[Br-]`, the Activity with HepG2 [1] is 46.67%; in the data set with HepG2 [2] it was 22.68%; with HepG2 [5] it was 18.32%; in the data set on HepG2 [6] it was 10.14%. The inhibition result in the data set listed under Homo sapiens [3] and in the data set listed under Homo sapiens [4] was “inactive” each time.
Turning to `CN(C)c1cc[n+](Cc2ccc(CNc3cccc(O)c3)cc2)cc1.[Br-]`, the Activity in the data set with HepG2 [1] amounted to 54.51%; with HepG2 [2], 24.38%; with HepG2 [5], 13.01%; in the data set on HepG2 [6], 7.74%. For the same compound, the inhibition in the data set listed under Homo sapiens [3] is 52.4%; in the data set filed under Homo sapiens [4] it was 27.5%.
As for `Oc1cccc(NCc2ccc(CCc3ccc(C[n+]4ccc(N5CCCC5)cc4)cc3)cc2)c1.[Br-]`, the Activity entry was “Toxic” with HepG2 [7], “Toxic” in the data set on HepG2 [8], 67.39% with HepG2 [5] and 11.19% with HepG2 [6]. Further, the inhibition in the data set filed under Homo sapiens [3] stood at 13.6%. The inhibition entry in the data set listed under Homo sapiens [4] was “inactive”.
On to `CN(C)c1cc[n+](Cc2ccc(CCc3ccc(COc4cccc(N)c4)cc3)cc2)cc1.[Br-]`, for which the Activity in the data set on HepG2 [1] is given as 59.54%; in the data set on HepG2 [2], 30.53%; in the data set on HepG2 [5] it was 6.98%; in the data set with HepG2 [6] it was 7.42%. For the same compound, the inhibition in the data set filed under Homo sapiens [3] amounted to 21.9%. The inhibition entry in the data set listed under Homo sapiens [4] was “inactive”.
Regarding `Oc1cccc(NCc2ccc(C[n+]3ccc(N4CCCC4)cc3)cc2)c1.[Br-]`, the Activity in the data set with HepG2 [1] was 8.53%; in the data set on HepG2 [2], 9.54%; in the data set on HepG2 [5], 13.43%; in the data set with HepG2 [6] it was 2.91%. Besides, the inhibition in the data set listed under Homo sapiens [3] was found to be 41.3%. Further, the inhibition result in the data set listed under Homo sapiens [4] was “inactive”.
Consider `CN(C)c1cc[n+](Cc2ccc(CCCCc3ccc(CNc4cccc(O)c4)cc3)cc2)cc1.[Br-]`, for which the Activity in the data set with HepG2 [1] stood at 71.1%; in the data set with HepG2 [2], 30.86%; in the data set on HepG2 [5] it was 13.09%; in the data set on HepG2 [6], 4.58%. For the same compound, the results for the inhibition in the data set listed under Homo sapiens [3] and in the data set filed under Homo sapiens [4] were 12.9% and 3.8%, respectively.
`Nc1cccc(OCc2ccc(C[n+]3ccc(N4CCCC4)cc3)cc2)c1`: the outcome in the data set with HepG2 [1], in the data set with HepG2 [2], in the data set with HepG2 [5] and with HepG2 [6] was inactive. Further, the inhibition was determined as 12.9% in the data set listed under Homo sapiens [3] and 3.8% in the data set filed under Homo sapiens [4].
For `CN(C)c1cc[n+](Cc2ccc(COc3cccc(N)c3)cc2)cc1.[Br-]`, the Activity with HepG2 [1] was 22.48%. In addition, the result with HepG2 [2], in the data set on HepG2 [5] and in the data set on HepG2 [6] was inactive. Besides, the inhibition is 37.7% in the data set filed under Homo sapiens [3] and 14.8% in the data set filed under Homo sapiens [4].
Consider `Nc1cccc(OCc2ccc(CCc3ccc(C[n+]4ccc(N5CCCC5)cc4)cc3)cc2)c1.[Br-]`, for which the Activity entry in the data set on HepG2 [7] is reported as “Toxic”; with HepG2 [8] it was “Toxic”; in the data set with HepG2 [5] it was 76.04%; with HepG2 [6], 55.37%. Besides, the inhibition entry in the data set filed under Homo sapiens [3] and in the data set listed under Homo sapiens [4] was “inactive” throughout.
As for `Oc1cccc(NCc2ccc(-c3ccc(C[n+]4ccc(N5CCCC5)cc4)cc3)cc2)c1.[Br-]`, the Activity entry with HepG2 [7] is recorded as “Toxic”; in the data set with HepG2 [8], “Toxic”; with HepG2 [5], 52.99%; in the data set with HepG2 [6] it was 48.52%. Further, the inhibition in the data set listed under Homo sapiens [3] was 28.2%. The inhibition result in the data set listed under Homo sapiens [4] is “inactive”.
Turning to `Nc1cccc(OCc2ccc(-c3ccc(C[n+]4ccc(N5CCCC5)cc4)cc3)cc2)c1.[Br-]`, the Activity result in the data set with HepG2 [7] is “Toxic”; in the data set on HepG2 [8], “Toxic”; with HepG2 [5], 57.24%; in the data set with HepG2 [6] it was 40.52%. In addition, the inhibition in the data set listed under Homo sapiens [3] is 20.8%. In addition, the inhibition entry in the data set filed under Homo sapiens [4] was “inactive”.
Turning to `CN(C)c1cc[n+](Cc2ccc(CCCCc3ccc(Cn4cnc5c(N)ncnc54)cc3)cc2)cc1.[Br-]`, the Activity in the data set on HepG2 [1] was found to be 45.5%; with HepG2 [2], 10.2%. In addition, the figures for the inhibition in the data set filed under Homo sapiens [3] and in the data set listed under Homo sapiens [4] were 89.7% and 66.7%, respectively.
As to `CN(C)c1cc[n+](Cc2ccc(-c3ccc(CNc4cccc(O)c4)cc3)cc2)cc1.[Br-]`, the IC50 in [9] was found to be 7.89 µM. For the same compound, the Activity in the data set on HepG2 [1] is 24.4%; in the data set with HepG2 [2], 9.86%. The outcome with HepG2 [5] and in the data set with HepG2 [6] was inactive. The inhibition was found to be 66.2% in the data set listed under Homo sapiens [3] and 54.2% in the data set filed under Homo sapiens [4].
Consider `Nc1cccc(OCc2ccc(CCCCc3ccc(C[n+]4ccc(N5CCCC5)cc4)cc3)cc2)c1.[Br-]`, for which the Activity entry in the data set on HepG2 [7] is listed as “Toxic”; with HepG2 [8], “Toxic”; with HepG2 [5] it was 83.21%; in the data set with HepG2 [6], 57.69%. Moreover, the inhibition in the data set listed under Homo sapiens [3] came to 21.6%. Also, the inhibition entry in the data set listed under Homo sapiens [4] was “inactive”.
`CN(C)c1cc[n+](Cc2ccc(-c3ccc(COc4cccc(N)c4)cc3)cc2)cc1.[Br-]`: the IC50 in data set [9] was found to be 6.37 µM. The Activity result in the data set with HepG2 [7] was “Toxic”; in the data set on HepG2 [2] it was 24.4%; with HepG2 [5], 16.23%; in the data set with HepG2 [6], 8.5%. Besides, the inhibition in the data set listed under Homo sapiens [3] stood at 79.8%; in the data set filed under Homo sapiens [4], 54.4%.
For `CN(C)c1cc[n+](Cc2ccc(CCc3ccc(CNc4cccc(O)c4)cc3)cc2)cc1.[Br-]`, the Activity is 73.4% with HepG2 [1], 34.1% in the data set with HepG2 [2], 18.43% with HepG2 [5] and 5.56% in the data set with HepG2 [6]. For the same compound, the inhibition in the data set filed under Homo sapiens [3] amounted to 39.5%. For the same compound, in the data set filed under Homo sapiens [4], the inhibition result is “inactive”.
In the case of `Oc1cccc(NCc2ccc(CCCCc3ccc(C[n+]4ccc(N5CCCC5)cc4)cc3)cc2)c1.[Br-]`, the Activity result in the data set with HepG2 [7] is given as “Toxic”; in the data set on HepG2 [8], “Toxic”; with HepG2 [5] it was 48.96%. In addition, in the data set with HepG2 [6], the outcome was inactive. Moreover, the inhibition in the data set listed under Homo sapiens [3] is 18%. Further, the inhibition result in the data set filed under Homo sapiens [4] is “inactive”.

The values above are taken from ChEMBL document CHEMBL2440082, “New non-symmetrical choline kinase inhibitors” (Bioorg Med Chem, 2013).
